Laboratory results: patent US10251892B2, “Bicyclic heterocycles as FGFR4 inhibitors” (Incyte Corporation, priority 2015, dated 2019)

The compounds below were run against FGFR3 enzyme (Homo sapiens (Human), UniProt P22607) (assay: FGFR Enzymatic Assay (peptide phosphorylation, FRET), FGFR3). Conditions: IC50 ratio showing FGFR3 selectivity; pre-incubated for 4 hours.
Format: biochemical
Procedure: The inhibitor potency of the exemplified compounds was measured in an enzyme assay that measures peptide phosphorylation using FRET measurements to detect product formation. Inhibitors were serially diluted in DMSO and a volume of 0.5 μL was transferred to the wells of a 384-well plate.
GraphPad prism3 was used to analyze the data.

Sequence of FGFR3 enzyme (P22607 23-806): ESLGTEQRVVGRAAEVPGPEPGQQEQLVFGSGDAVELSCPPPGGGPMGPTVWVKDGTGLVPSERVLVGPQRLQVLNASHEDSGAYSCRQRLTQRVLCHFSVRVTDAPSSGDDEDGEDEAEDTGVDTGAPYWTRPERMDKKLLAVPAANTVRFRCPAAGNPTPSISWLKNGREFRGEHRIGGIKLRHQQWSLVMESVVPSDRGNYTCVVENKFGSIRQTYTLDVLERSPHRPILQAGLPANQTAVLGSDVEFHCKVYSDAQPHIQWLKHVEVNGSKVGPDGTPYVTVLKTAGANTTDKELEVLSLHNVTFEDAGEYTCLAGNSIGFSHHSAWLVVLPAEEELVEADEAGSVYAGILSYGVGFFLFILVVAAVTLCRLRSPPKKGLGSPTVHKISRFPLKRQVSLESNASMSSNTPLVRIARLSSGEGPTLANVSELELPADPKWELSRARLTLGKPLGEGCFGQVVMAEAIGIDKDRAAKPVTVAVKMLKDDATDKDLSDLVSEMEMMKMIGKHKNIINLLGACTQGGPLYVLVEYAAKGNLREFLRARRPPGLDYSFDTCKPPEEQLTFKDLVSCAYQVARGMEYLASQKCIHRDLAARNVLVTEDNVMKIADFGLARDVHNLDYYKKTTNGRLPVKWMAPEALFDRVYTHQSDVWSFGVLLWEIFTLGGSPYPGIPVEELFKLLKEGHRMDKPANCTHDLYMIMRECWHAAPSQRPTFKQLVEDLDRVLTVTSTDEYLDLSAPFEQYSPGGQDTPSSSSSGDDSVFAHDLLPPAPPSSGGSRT

| Structure (SMILES) | FGFR1/FGFR3 | FGFR4/FGFR3 |
| --- | --- | --- |
| COc1cc(OC)c(F)c(N2Cc3cnc(-c4cnn(C5(C#N)CCC5)c4C)cc3C3(CC3)C2=O)c1F [Example 149, 1-(4-(2′-(2,6-difluoro-3,5-dimethoxyphenyl)-3′-oxo-2′,3′-dihydro-1′H-spiro[cyclopropane-1,4′-[2,7]naphthyridine]-6′-yl)-5-methyl-1H-pyrazol-1-yl)cyclobutanecarbonitrile] | >5 | >3 |
| COc1cc(OC)c(F)c(N2Cc3cnc(-c4cn(CCN(C)C)nc4C)cc3C3(CC3)C2=O)c1F [Example 164, 2′-(2,6-difluoro-3,5-dimethoxyphenyl)-6′-(1-(2-(dimethylamino)ethyl)-3-methyl-1H-pyrazol-4-yl)-1′H-spiro[cyclopropane-1,4′-[2,7]naphthyridin]-3′(2′H)-one] | >3 | >3 |
| COc1cc(OC)c(F)c(N2Cc3cnc(-c4cn(C)nc4C)cc3N(C3CCOC3)C2=O)c1F (centres unmarked) [Example 33, 3-(2,6-difluoro-3,5-dimethoxyphenyl)-7-(1,3-dimethyl-1H-pyrazol-4-yl)-1-(tetrahydrofuran-3-yl)-3,4-dihydropyrido[4,3-d]pyrimidin-2(1H)-one] | >5 | >5 |
| COc1cc(OC)c(F)c(N2Cc3cnc(-c4cn(C)nc4C)cc3N(C3CCCC3)C2=O)c1F [Example 32, 1-cyclopentyl-3-(2,6-difluoro-3,5-dimethoxyphenyl)-7-(1,3-dimethyl-1H-pyrazol-4-yl)-3,4-dihydropyrido[4,3-d]pyrimidin-2(1H)-one] | >1 | >5 |
| COc1cc(OC)c(F)c(N2Cc3cnc(-c4cn(C)nc4C)cc3N(c3ccc(S(C)(=O)=O)cc3)C2=O)c1F [Example 98, 3-(2,6-difluoro-3,5-dimethoxyphenyl)-7-(1,3-dimethyl-1H-pyrazol-4-yl)-1-(4-(methylsulfonyl)phenyl)-3,4-dihydropyrido[4,3-d]pyrimidin-2(1H)-one] | >5 | >10 |
| COc1cc(OC)c(F)c(N2Cc3cnc(-c4cn(C5CCN(C)C5)nc4C)cc3C3(CC3)C2=O)c1F (centres unmarked) [Example 163, 2′-(2,6-difluoro-3,5-dimethoxyphenyl)-6′-(3-methyl-1-(1-methylpyrrolidin-3-yl)-1H-pyrazol-4-yl)-1′H-spiro[cyclopropane-1,4′-[2,7]naphthyridin]-3′(2′H)-one] | >3 | >3 |
| COc1cc(OC)c(F)c(N2Cc3cnc(-c4cnn(C5(CC#N)CN(C(C)=O)C5)c4)cc3C3(CC3)C2=O)c1F [Example 56, 2-(1-acetyl-3-(4-(2′-(2,6-difluoro-3,5-dimethoxyphenyl)-3′-oxo-2′,3′-dihydro-1′H-spiro[cyclopropane-1,4′-[2,7]naphthyridine]-6′-yl)-1H-pyrazol-1-yl)azetidin-3-yl)acetonitrile] | >5 | >1 |
| COc1cc(OC)c(F)c(N2Cc3cnc(-c4cn(Cc5cccnc5)nc4C)cc3C3(CC3)C2=O)c1F [Example 155, 2′-(2,6-difluoro-3,5-dimethoxyphenyl)-6′-(3-methyl-1-(pyridin-3-ylmethyl)-1H-pyrazol-4-yl)-1′H-spiro[cyclopropane-1,4′-[2,7]naphthyridin]-3′(2′H)-one] | >5 | >1 |
| CCN1C(=O)N(c2c(F)c(OC)cc(OC)c2F)Cc2cnc(-c3ccc(C(=O)NCCO)nc3)cc21 [Example 177, 5-(3-(2,6-difluoro-3,5-dimethoxyphenyl)-1-ethyl-2-oxo-1,2,3,4-tetrahydropyrido[4,3-d]pyrimidin-7-yl)-N-(2-hydroxyethyl)picolinamide] | >5 | >10 |
| CCN1C(=O)N(c2c(F)c(OC)cc(OC)c2F)Cc2cnc(-c3ccc(C(N)=O)nc3)cc21 [Example 184, 5-(3-(2,6-difluoro-3,5-dimethoxyphenyl)-1-ethyl-2-oxo-1,2,3,4-tetrahydropyrido[4,3-d]pyrimidin-7-yl)picolinamide] | >5 | >5 |
| COc1cc(OC)c(F)c(N2Cc3cnc(-c4cnn(CCN5CCC(OC)CC5)c4)cc3C3(CC3)C2=O)c1F [Example 152, 2′-(2,6-difluoro-3,5-dimethoxyphenyl)-6′-(1-(2-(4-methoxypiperidin-1-yl)ethyl)-1H-pyrazol-4-yl)-1′H-spiro[cyclopropane-1,4′-[2,7]naphthyridin]-3′(2′H)-one] | >5 | >3 |
| CCN1C(=O)N(c2c(F)c(OC)cc(OC)c2F)Cc2cnc(-c3ccccc3)cc21 [Example 22, 3-(2,6-difluoro-3,5-dimethoxyphenyl)-1-ethyl-7-phenyl-3,4-dihydropyrido[4,3-d]pyrimidin-2(1H)-one] | >5 |  |
| CCN1C(=O)N(c2c(F)c(OC)cc(OC)c2F)Cc2cnc(-c3ccc(C(C)(C)C#N)nc3)cc21 [Example 26, 2-(5-(3-(2,6-difluoro-3,5-dimethoxyphenyl)-1-ethyl-2-oxo-1,2,3,4-tetrahydropyrido[4,3-d]pyrimidin-7-yl)pyridin-2-yl)-2-methylpropanenitrile] | >5 | >5 |
| COc1cc(OC)c(F)c(N2Cc3cnc(-c4ccccc4)cc3C3(CC3)C2=O)c1F [Example 17, 2′-(2,6-difluoro-3,5-dimethoxyphenyl)-6′-phenyl-1′H-spiro[cyclopropane-1,4′-[2,7]naphthyridin]-3′(2′H)-one] | >10 |  |

Second part, the compound after the results:

| FGFR1/FGFR3 | FGFR4/FGFR3 | Structure (SMILES) |
| --- | --- | --- |
| >3 | >5 | COc1cnc(N2C(=O)N(c3c(F)c(OC)cc(OC)c3F)Cc3cnc(-c4cn(C)nc4C)cc32)cn1 [Example 112, 3-(2,6-difluoro-3,5-dimethoxyphenyl)-7-(1,3-dimethyl-1H-pyrazol-4-yl)-1-(5-methoxypyrazin-2-yl)-3,4-dihydropyrido[4,3-d]pyrimidin-2(1H)-one] |
| >3 | >5 | CCc1cnc(N2C(=O)N(c3c(F)c(OC)cc(OC)c3F)Cc3cnc(-c4cn(C)nc4C)cc32)cn1 [Example 106, 3-(2,6-difluoro-3,5-dimethoxyphenyl)-7-(1,3-dimethyl-1H-pyrazol-4-yl)-1-(5-ethylpyrazin-2-yl)-3,4-dihydropyrido[4,3-d]pyrimidin-2(1H)-one] |
| >5 | >3 | COc1cc(OC)c(F)c(N2Cc3cnc(-c4cn(C)nc4C)cc3N(c3ccc(C#N)cn3)C2=O)c1F [Example 79, 6-(3-(2,6-difluoro-3,5-dimethoxyphenyl)-7-(1,3-dimethyl-1H-pyrazol-4-yl)-2-oxo-3,4-dihydropyrido[4,3-d]pyrimidin-1(2H)-yl)nicotinonitrile] |
| >5 | >10 | COc1cc(N2C(=O)N(c3c(F)c(OC)cc(OC)c3F)Cc3cnc(-c4cn(C)nc4C)cc32)ccc1C#N [Example 81, 4-(3-(2,6-difluoro-3,5-dimethoxyphenyl)-7-(1,3-dimethyl-1H-pyrazol-4-yl)-2-oxo-3,4-dihydropyrido[4,3-d]pyrimidin-1(2H)-yl)-2-methoxybenzonitrile] |
| >1 | >5 | COc1cc(OC)c(F)c(N2Cc3cnc(-c4cn(C)nc4C)cc3N(CC3CC3)C2=O)c1F [Example 29, 1-(cyclopropylmethyl)-3-(2,6-difluoro-3,5-dimethoxyphenyl)-7-(1,3-dimethyl-1H-pyrazol-4-yl)-3,4-dihydropyrido[4,3-d]pyrimidin-2(1H)-one] |
| >5 | >5 | COc1cc(OC)c(F)c(N2Cc3cnc(-c4cn(C)nc4C)cc3N(Cc3ccncc3)C2=O)c1F [Example 69, 3-(2,6-difluoro-3,5-dimethoxyphenyl)-7-(1,3-dimethyl-1H-pyrazol-4-yl)-1-(pyridin-4-ylmethyl)-3,4-dihydropyrido[4,3-d]pyrimidin-2(1H)-one] |
| >3 | >5 | COc1cc(OC)c(F)c(N2Cc3cnc(-c4cn(C)nc4C)cc3N(c3ccc4[nH]ncc4c3)C2=O)c1F [Example 134, 3-(2,6-difluoro-3,5-dimethoxyphenyl)-7-(1,3-dimethyl-1H-pyrazol-4-yl)-1-(1H-indazol-5-yl)-3,4-dihydropyrido[4,3-d]pyrimidin-2(1H)-one] |
| >3 | >5 | COc1cc(OC)c(F)c(N2Cc3cnc(-c4cn(C)nc4C)cc3N(c3cc(F)cc(F)c3)C2=O)c1F [Example 103, 3-(2,6-difluoro-3,5-dimethoxyphenyl)-1-(3,5-difluorophenyl)-7-(1,3-dimethyl-1H-pyrazol-4-yl)-3,4-dihydropyrido[4,3-d]pyrimidin-2(1H)-one] |
| >5 | >10 | COc1cc(OC)c(F)c(N2Cc3cnc(-c4cn(C)nc4C)cc3N(Cc3cc(C)on3)C2=O)c1F [Example 31, 3-(2,6-difluoro-3,5-dimethoxyphenyl)-7-(1,3-dimethyl-1H-pyrazol-4-yl)-1-((5-methylisoxazol-3-yl)methyl)-3,4-dihydropyrido[4,3-d]pyrimidin-2(1H)-one] |
| >5 | >3 | COc1cc(OC)c(F)c(N2Cc3cnc(-c4cn(C)nc4C)cc3N(c3cc(F)cc(C#N)c3)C2=O)c1F [Example 78, 3-(3-(2,6-difluoro-3,5-dimethoxyphenyl)-7-(1,3-dimethyl-1H-pyrazol-4-yl)-2-oxo-3,4-dihydropyrido[4,3-d]pyrimidin-1(2H)-yl)-5-fluorobenzonitrile] |
| >3 | >5 | COc1ccc(N2C(=O)N(c3c(F)c(OC)cc(OC)c3F)Cc3cnc(-c4cn(C)nc4C)cc32)cc1 [Example 104, 3-(2,6-difluoro-3,5-dimethoxyphenyl)-7-(1,3-dimethyl-1H-pyrazol-4-yl)-1-(4-methoxyphenyl)-3,4-dihydropyrido[4,3-d]pyrimidin-2(1H)-one] |
| >5 | >10 | COc1cc(OC)c(F)c(N2Cc3cnc(-c4cn(C)nc4C)cc3N(Cc3ccccn3)C2=O)c1F [Example 94, 3-(2,6-difluoro-3,5-dimethoxyphenyl)-7-(1,3-dimethyl-1H-pyrazol-4-yl)-1-(pyridin-2-ylmethyl)-3,4-dihydropyrido[4,3-d]pyrimidin-2(1H)-one] |
